Reference: patent US10787430B2, “Hemoglobin modifier compounds and uses thereof” (FronThera U.S. Pharmaceuticals LLC, priority 2016, dated 2020)
Values after ≈ are worked out from the molar mass of the structure shown. Read-outs that look alike come from different tables or passages of the source.

What was measured:
[1] = Solubility in JP1, JP2 and FaSSIF buffers; type: physicochemical; details: 25 °C, thermodynamic from solid, room temperature
Procedure: Conditions: 1. JP1 buffer (84 mM HCl, 34.22 mM NaCl, pH 1.2); 2. JP2 buffer (50 mM phosphate buffer at pH 6.8); 3. FaSSIF buffer, pH 6.5 (Preparation: In about 0.9 L of purified water dissolve 0.420 g of NaOH (pellets), 4.470 g of NaH2PO4 (dihydrate), 6.186 g of NaCl; Adjust the pH to 6.5 with Sodium hydroxide 1N or Hydrochloric acid 1N, to make up to volume (1 L) with purified water at room temperature; Add 0.224 g of SIF Powder Original to about 0.5 L of pH 6.5 blank buffer and stir until powder is completely dissolved; Let stand for 2 hour. FaSSIF buffer is now ready to use.
Procedures: 1. accurately weighed about 2 mg test compounds and controls in whatman vials, then transferred 450 μL buffer in to the vials; 2. Filter pistons of miniuniprep vials were placed and compressed to the position of the liquid level to allow for contact. Vortexed for 2 minutes; 3. […] Miniunipreps were compressed to prepare the filtrates for injection into HPLC system; 5. Diluted the filtrates with buffer by a factor of 50 fold to make diluents; 6. Determined the test compound concentration of the diluents and filtrates using HPLC-UV.

[2] = tested on: sickled HbSS whole blood (RBC sickling); experiment: Anti-sickling assay in HbSS sickled blood under hypoxic induction; type: cell-based, human; details: HbSS whole blood 26% Hct, 20 mins hypoxic induction; 0.2 mM compounds (FIG. 2)
Procedure: Materials: • Blood collected after informed consent from sickle cell individuals. • HBS buffer: 10 mM HEPES, 145 mM NaCl, pH 7.4 • Hemox buffer: Buffer provided for the hemox analyzer • Control Compound stock solution in DMSO (50 mM) stored at RT • Control Compound work solution (CWS): 10 μl of DMSO was added by Hamilton to 90 μl of HBS buffer (20 mM Hepes, 145 mM NaCl, pH 7.4) to create a working solution with a final concentration of 5 mM drug and 10% DMSO). • Compound stock solution in DMSO (50 mM) stored at RT • Compound work solution (WS): 10 μl of DMSO was added by Hamilton to 90 μl of HBS buffer (20 mM Hepes, 145 mM NaCl, pH 7.4) to create a working solution with a final concentration of 5 mM drug and 10% DMSO). • DMSO buffer: 10% DMSO (DB), same as WS but without drug. This will be used to maintain DMSO the same for different drug incubations. Test Protocol:
Collect blood from Clinic: Blood were collected after informed consent according to an approved IRB protocol. • Run Advia 120 analysis on SCD blood, to determine Hct. • Dilute blood to 20% Hct with HBS to total volume of 3 ml. • This cell suspension (CS) will be used for all experiments.
Incubation • 1. 200 μl CS • 2. 200 μl CS+20 μl CWS (5 mM diluted 10 times=0.5 mM control final)−(1% DMSO) • 3. 200 μl CS+20 μl WS (5 mM diluted 10 times=0.5 mM control final)−(1% DMSO) • 4. 200 μl CS+8 μl WS (0.2 mM drug final)+DB−(1% DMSO) • Incubate 30 minutes at 37° C.
50 μl into 1 ml HBS+2% BSA buffer. Eight time points (0-20 minutes) at 2% oxygen, 10,000 events each)
The sickling runs provide sets samples that need to be run on the AMNIS image flow and are subsequently analyzed with pixel analysis software.
Drug was provided at 50 mM concentration in DMSO, and stored at room temperature until use. 10 μl of DMSO was added by Hamilton to 90 μl of HBS buffer (20 mM Hepes, 145 mM NaCl, pH 7.4) to create a working solution with a final concentration of 5 mM drug and 10% DMSO). Blood was collected from a sickle cell patient in EDTA anticoagulant. To 200 μl of whole blood, a 20 or 8 μl of working solution was added resulting in a final drug concentration of 0.5 mM or 0.2 mM respectively. The DMSO concentration in both was corrected to 1%. The final hematocrit was measured by ADVIA analysis to be 26%. […] The delta hemox (%) comparing Example 29e with GBT440 is shown in FIG. 1A (0.2 mM) and FIG. 1B (0.5 mM).
Anti-sickling is shown in FIG. 2 with M: maximum percentage of sickled cells during 20 mins of hypoxic induction, T: time needed to reach 50% of M, and Z: baseline percentage of sickled cells prior to hypoxic induction.

solubility at 24 h ([1]; aqueous buffer, JP2 buffer (50 mM phosphate) pH 6.8, 24 hr, read-out: JP2 Solubility): 15.1 µg/mL (≈ 44.4 µM)
solubility at 24 h ([1]; simulated gastric fluid, JP1 buffer pH 1.2, 24 hr, read-out: JP1 Solubility): 20 µg/mL (≈ 58.6 µM)
solubility at 24 h ([1]; FaSSIF buffer pH 6.5, 24 hr, read-out: FaSSIF Solubility): 26.6 µg/mL (≈ 78.1 µM)
Compound: [2H]C([2H])(Oc1cccc(O)c1C=O)c1cncnc1-c1ccnn1C(C)C [Example 38, 2-hydroxy-6-((4-(1-isopropyl-1H-pyrazol-5-yl)pyrimidin-5-yl)methoxy-d2)benzaldehyde]
Reduction in % sickled cells compared to untreated [2]: −30.6%
